Experimental data taken from patent US11666598B2 (priority 2019, dated 2023).

Tests used:
Escherichia coli (BL21) = test: In vitro E. coli bacterial growth assessment (optical density 600 nm); type: cell-based; conditions: soluble; rich media (LB broth)
Experimental: Escherichia coli (BL21) was expanded overnight in LB broth, then seeded (1:100) in fresh medium according to growth conditions. Experiments were carried out in modified M9 minimal medium supplemented with appropriate carbon source (Acetate: 1%, Glucose 0.4%) or LB broth (Lennox). Time course assessment of soluble small molecule inhibition was conducted in 96-well culture plates fitted with a breathable film to encourage aeration and cultured for indicated time with incremental optical density measurement (600 nm). Growth media containing solubilized acid was neutralized with sodium hydroxide (pH=7.0).
To determine polymer antimicrobial properties in solution, six well plates were cast with equal mass polymer samples and polymer free culture plate (polystyrene) controls. […] Silver nanoparticles (10 nm) and PLLA (Mn=85-110 kDa, Sigma) were used as positive and negative controls respectively. Soluble assessment of DMI was conducted using the method described for polymer samples using a 12 well plate format (1.5 mL/well).

[1] = system: murine bone marrow derived macrophages (BMDM); test: Cytokine quantification in stimulated bone marrow derived macrophages; type: cell-based, C57BL/6 mice; conditions: 12 hr pretreatment, then LPS or LPS+IFNγ 12 hr; vs PLGA and insert free controls
Experimental: For experiments, cells were seeded at 90 000 cells cm^−2 in 6 well culture plates. […] Unstimulated cells treated with identical groups were used as a negative control.
Cytokine quantification was conducted on cell supernatants using a mouse 10-plex pro-inflammatory assay or an interferon beta single plex assay (Eve Technologies, Calgary, AB) and calculated using their standard curve. Nitrite content was determined using a Greiss Reagent Kit.

isocitrate lyase (ICL) = conditions: under glucose deprived conditions; cited from earlier work

Structure (SMILES) | concentration showing sensitivity on rich media (Escherichia coli (BL21)) [mM] | IL-6 [1] | inhibition of isocitrate lyase (ICL) (isocitrate lyase (ICL))
C=C(CC(=O)OC)C(=O)OC [DMI, dimethyl itaconate] | > 7.5 | marked | –
C=C(CC(=O)O)C(=O)O [ITA, itaconic acid] | – | – | potent inhibitor
